This note sets out measurements from PubChem BioAssay AID1361 (SRMLSC, 2008).

This assay is described as follows: mitochondrial fusion inhibitors, confirmation, cell-based, chemical genetic, wild-type and mutant (AID 1361). The note with it: Cell-based mitochondrial fusion phenotype, imaging.
[1] abbreviates: mutant cells, measured here: mutant cell line IC50.

The source made the active and inactive calls. The rule behind the calls is not given here.

For `Cc1ccccc1C(=O)Oc1ccc(Sc2ccc(O)cc2)cc1`, the concentration for half-maximal inhibition (IC50) was 8.72 µM (WT cells) and above 25 µM under setting [1].
Taken in the same sequence, the figures for `Cc1ccc(S(=O)(=O)NCc2ccco2)c(C)c1C` were > 25 µM (inactive) and above 25 µM.
Take `CCc1ccc(OCC2c3cc(OC)c(OC)cc3CCN2C(=S)NC)cc1` (stereo not drawn): the IC50 (WT cells) was > 25 µM (inactive) and the IC50 under setting [1] was above 25 µM.
Consider `O=C(NC(Cc1c[nH]c2ccccc12)C(=O)Nc1ccc(OC(F)(F)F)cc1)c1cccs1` (stereo not drawn), for which the IC50 (WT cells) was > 25 µM (inactive) and the IC50 under setting [1] is above 25 µM.
In the case of `Cc1oc(-c2ccccc2)[n+]([O-])c1C`, the IC50 runs as follows: (WT cells) > 25 µM (inactive); under setting [1], above 25 µM.
Taken in the same sequence, the figures for `CC1CCN(c2nc(-c3cccnc3)nc3scc(-c4ccccc4)c23)CC1` were 13.1 µM and above 25 µM.
With `O=C1COc2ccc(NC(=O)N3CCN(c4ccc(F)cc4)CC3)cc2N1`, the IC50 was > 25 µM (inactive) (WT cells) and above 25 µM under setting [1].
Consider `N#CCc1ccc(NS(=O)(=O)c2ccc(C3CCCCC3)cc2)cc1`, for which the IC50 runs as follows: (WT cells) 22.8 µM; under setting [1], above 25 µM.
As for `O=C(NCC1(c2ccccc2)CCCC1)C1(c2ccccc2)CCCC1`, the concentration for half-maximal inhibition (IC50) (WT cells) was 16.8 µM and the IC50 under setting [1] was above 25 µM.
Consider `Nc1[nH]n2c(=O)c3c(nc2c1N=Nc1ccccc1)CCCC3`, for which the IC50 (WT cells) was > 25 µM (inactive) and the IC50 under setting [1] is above 25 µM.
Regarding `Cc1nc2ccc(NC(=O)c3nn(CC(C)C)c(=O)c4ccccc34)cc2s1`, the IC50 runs as follows: (WT cells) > 25 µM (inactive); under setting [1], above 25 µM.
Taken in the same sequence, the figures for `CCCCOP(=O)(c1ccc(N(C)C)cc1)C(Nc1ccccc1)c1ccccc1` (stereo not drawn) were 14.1 µM and above 25 µM.
As to `FC(F)(F)c1cnc(Sc2nc3nccc(-c4ccc(Cl)cc4)n3n2)c(Cl)c1`, the IC50 runs as follows: (WT cells) > 25 µM (inactive); under setting [1], above 25 µM.
Taken in the same sequence, the figures for `COCCCn1c(SCC(=O)NC(C)(C)C)nnc1-c1ccccc1` were > 25 µM (inactive) and above 25 µM.
With `C=CCn1c(C)c(C(C)=O)c(N2CCN(C(c3ccccc3)c3ccccc3)CC2)nc1=S`, the half-maximal inhibitory concentration (IC50) runs as follows: (WT cells) 13.3 µM; under setting [1], above 25 µM.
Taken in the same sequence, the figures for `O=C(Nc1ccccc1Sc1ccccc1)c1ccc(F)cc1` were > 25 µM (inactive) and above 25 µM.
`Cc1ccc(Nc2nc(N)c([N+](=O)[O-])c(NCc3ccco3)n2)cc1C`: the IC50 (WT cells) was 15.5 µM and the IC50 under setting [1] was above 25 µM.
Taken in the same sequence, the figures for `CNC(=S)N1CCN(c2ccc([N+](=O)[O-])cc2)CC1` were > 25 µM (inactive) and above 25 µM.
Taken in the same sequence, the figures for `CCOC(=O)c1c(NS(=O)(=O)c2ccc(Br)cc2)sc2c1CCC2` were 12.6 µM and above 25 µM.
As for `CCSc1nnc(NC(=O)COc2ccc3ccccc3c2)s1`, the IC50 runs as follows: (WT cells) > 25 µM (inactive); under setting [1], above 25 µM.
Taken in the same sequence, the figures for `COc1cccc(C2CN(c3ccc(F)cc3F)N=C2c2cccs2)c1OC` (stereo not drawn) were 10 µM and above 25 µM.
Taken in the same sequence, the figures for `CCC[C@@H]1C[C@@]1(CCC)[C@@H](NP(=O)(c1ccccc1)c1ccccc1)c1ccc(C(=O)OC)cc1` were 12.6 µM and above 25 µM.
With `Cc1cccc(COCC(CC(C)C)N2CCN(C(=O)c3ccc(C(C)(C)C)cc3)CCC2=O)c1` (stereo not drawn), the IC50 reads like this: (WT cells) 14.7 µM; under setting [1], above 25 µM.
Taken in the same sequence, the figures for `Cc1onc(-c2ccccc2Cl)c1C(=O)Nc1sc2c(c1C(N)=O)CCC(C)C2` (stereo not drawn) were 12.2 µM and above 25 µM.
Regarding `Cc1ccc(-c2nc(N)sc2-c2ccc(C)cc2)cc1`, the IC50 by setting is: (WT cells) 9.96 µM (inactive); under setting [1], 9.46 µM.
Taken in the same sequence, the figures for `COc1ccc(CN(C)C2c3ccccc3-c3ccccc32)cc1` were 16.7 µM and 17 µM.
On to `COc1ccc(C2C(C#N)=C(SC)NC3=C2C(=O)CC(C)(C)C3)cc1` (stereo not drawn), for which the IC50 is > 25 µM (inactive) (WT cells) and above 25 µM under setting [1].
Taken in the same sequence, the figures for `CCCC12CN3CCN(CC(C3)/C1=N\NC(=O)c1ccc(C(C)(C)C)cc1)C2` were 6.28 µM and 20.2 µM.
Consider `CCOC(=O)c1sc(NC(=O)Nc2cccc(Cl)c2)cc1C`, for which the half-inhibitory concentration (IC50) was 11.8 µM (WT cells) and above 25 µM under setting [1].
Taken in the same sequence, the figures for `O=C(Nc1ccc(C(O)(C(F)(F)F)C(F)(F)F)cc1)c1ccc(Cl)c([N+](=O)[O-])c1` were 18.8 µM and above 25 µM.
Taken in the same sequence, the figures for `NC(=O)c1ccc(NC(=O)COC(=O)c2c3c(nc4ccccc24)/C(=C\c2ccc4c(c2)OCO4)CCC3)cc1` were 8.77 µM and above 25 µM.
Taken in the same sequence, the figures for `CCC(C)(C)c1ccc2c(c1)C(=O)c1ccccc1C2=O` were 18.6 µM and above 25 µM.
Turning to `O=C(COC(=O)c1ccccn1)Nc1cccc(Cl)c1Cl`, the IC50 (WT cells) was > 25 µM (inactive) and the half-maximal inhibitory concentration (IC50) under setting [1] is above 25 µM.
Taken in the same sequence, the figures for `N#Cc1c(NC(=S)NC(=O)C2CCCC2)sc2c1CCCCC2` were 10.5 µM and above 25 µM.
Taken in the same sequence, the figures for `CCCC[C@@H]1C[C@H]1[C@@H](NC(=O)c1cccs1)c1ccc(Cl)cc1` were 9.76 µM and above 25 µM.
As for `O=C(Nn1c(-c2ccccc2)nc2ccccc2c1=O)C1CCC1`, the IC50 runs as follows: (WT cells) > 25 µM (inactive); under setting [1], above 25 µM.
As for `CCCCSc1nnc(-c2ccc(C)cc2)c2ccccc12`, the half-maximal inhibitory concentration (IC50) was 9.57 µM (WT cells) and 23.1 µM under setting [1].
Taken in the same sequence, the figures for `Cc1cc(-c2sccc2C)nc(-n2cccc2)n1` were > 25 µM (inactive) and above 25 µM.
As for `Cc1cc(CC(C)C)n(-c2nc3ccccc3c(=O)n2OCc2ccccc2)n1`, the IC50 (WT cells) was > 25 µM (inactive) and the 50% inhibitory concentration (IC50) under setting [1] was above 25 µM.
Take `CCC(C(=O)OCC(=O)Nc1ccccc1-c1ccccc1)c1ccccc1` (stereo not drawn): the IC50 runs as follows: (WT cells) 17.3 µM; under setting [1], above 25 µM.
Taken in the same sequence, the figures for `CC(Oc1ccc(Cl)cc1Cl)C(=O)NCCCCc1ccccc1` (stereo not drawn) were > 25 µM (inactive) and above 25 µM.
Take `O=C(NC1CCS(=O)(=O)C1)c1ccc(-c2ccc(Br)cc2)o1` (stereo not drawn): the IC50 by setting is: (WT cells) > 25 µM (inactive); under setting [1], above 25 µM.
Taken in the same sequence, the figures for `c1ccc2c(c1)sc1nnnn12` were > 25 µM (inactive) and above 25 µM.
Take `COC(=O)c1cn(C(=O)OC)c2ccccc12`: the IC50 (WT cells) was > 25 µM (inactive) and the IC50 under setting [1] is above 25 µM.
Taken in the same sequence, the figures for `Cc1cc2ncn(/N=C/c3cccnc3)c2cc1C` were > 25 µM (inactive) and above 25 µM.
On to `O=C(COC(=O)C1(c2ccc(Cl)cc2)CCCC1)Nc1ncc(C(F)(F)F)cc1Cl`, for which the IC50 was 18.2 µM (WT cells) and above 25 µM under setting [1].
Taken in the same sequence, the figures for `CC(C)C(=O)Nc1cc(S(=O)(=O)Nc2ccc(Cl)cc2)ccc1Cl` were 22 µM and above 25 µM.
Taken in the same sequence, the figures for `N#CCC(=O)N/N=C/c1cc(-c2ccccc2)n(-c2ccc(Cl)cc2)c1-c1ccccc1` were 4.18 µM and above 25 µM.
For the compound `CCc1nnc(NC(=O)c2ccc(S(=O)(=O)N(CC(C)C)CC(C)C)cc2)o1`, the half-inhibitory concentration (IC50) was 22.5 µM (WT cells) and above 25 µM under setting [1].
Taken in the same sequence, the figures for `O=C(NCc1ccccc1)c1ccc(C(=O)N(C2CCCCC2)C2CCCCC2)cc1` were > 25 µM (inactive) and above 25 µM.
As for `CCOC(=O)c1sc(NC(=O)/C=C/c2cnn(C)c2C)c(C(=O)OC(C)C)c1C`, the IC50 runs as follows: (WT cells) > 25 µM (inactive); under setting [1], above 25 µM.
Taken in the same sequence, the figures for `Cc1c(N(C(=O)Nc2ccccc2)C2=NCC(C)S2)c(=O)n(-c2ccccc2)n1C` (stereo not drawn) were > 25 µM (inactive) and above 25 µM.
For the compound `NS(=O)(=O)c1ccc(N2N=C(c3ccccc3)CC2c2ccc(F)cc2)cc1` (stereo not drawn), the 50% inhibitory concentration (IC50) is, setting by setting: (WT cells) 12 µM; under setting [1], above 25 µM.
`CCCNC(=S)Nc1ccc2nc(-c3ccccn3)c(-c3ccccn3)nc2c1`: the IC50 (WT cells) was > 25 µM (inactive) and the IC50 under setting [1] is above 25 µM.
Taken in the same sequence, the figures for `COc1cc(CNn2cn[nH]c2=S)cc(Br)c1OCc1ccccc1F` were 19.7 µM and above 25 µM.
Taken in the same sequence, the figures for `Cc1nn(C(C)C(=O)NCC2CCCO2)c(=O)c2cc3occc3n12` (stereo not drawn) were > 25 µM (inactive) and above 25 µM.
With `CCC(=O)Nc1ccc(N2CCN(CC)CC2)c(Cl)c1`, the IC50 reads like this: (WT cells) > 25 µM (inactive); under setting [1], above 25 µM.
Taken in the same sequence, the figures for `O=C(Nc1ccc2c(c1)OCO2)c1ccccc1SCC(=O)N1CCCC1` were > 25 µM (inactive) and above 25 µM.
Taken in the same sequence, the figures for `CN(C(=S)Nc1ccc(SC(F)F)cc1)c1ccc(O)cc1` were > 25 µM (inactive) and above 25 µM.
Consider `CCCCCCOC1(c2ccccc2)OC(=O)c2ccccc21` (stereo not drawn), for which the IC50 (WT cells) is 17 µM and the 50% inhibitory concentration (IC50) under setting [1] came out at 21.5 µM.
Taken in the same sequence, the figures for `Cc1ccccc1NC(=O)CNc1ccccc1N1CCCCC1` were > 25 µM (inactive) and above 25 µM.
Taken in the same sequence, the figures for `CCOC(=O)c1cnc(-c2ccccc2)nc1-c1ccccc1` were > 25 µM (inactive) and above 25 µM.
As to `N#Cc1ccc(NC(=O)Nc2ccc(Cl)cc2)cc1`, the IC50 is 9.83 µM (WT cells) and 13.6 µM under setting [1].
In the case of `Cc1ccc(-c2nc3cc(Br)cnc3nc2-c2ccc(C)cc2)cc1`, the half-maximal inhibitory concentration (IC50) (WT cells) is 9.24 µM and the IC50 under setting [1] is above 25 µM.
Taken in the same sequence, the figures for `Cc1ccc(-n2c(-c3ccccc3)cc(/C=N/NC(=O)CC#N)c2-c2ccccc2)cc1` were > 25 µM (inactive) and above 25 µM.
For `COC(=O)Cc1ccc(N(Cc2ccccc2F)S(=O)(=O)c2ccc(C)cc2)cc1`, the IC50 reads like this: (WT cells) 3.34 µM; under setting [1], above 25 µM.
Regarding `N#CC1=C(N)SC(N)=C(C#N)C1c1c(Cl)cccc1Cl`, the IC50 is > 25 µM (inactive) (WT cells) and above 25 µM under setting [1].
Taken in the same sequence, the figures for `c1ccc(CNc2nc(-c3cccs3)nc3ccccc23)cc1` were > 25 µM (inactive) and above 25 µM.
With `CCOC(=O)C1=C(NC(=S)NC(=O)c2ccccc2)c2ccccc2CC1(C)CC` (stereo not drawn), the IC50 was 7.33 µM (WT cells) and above 25 µM under setting [1].

By IC50 is commonly meant the concentration at which inhibition is half-maximal.
